Data on 25 molecules can be found in ChEMBL document CHEMBL3046747, “Assessment of species specificity of moulting accelerating compounds in Lepidoptera: comparison of activity between Bombyx mori and Spodoptera littoralis by in vitro reporter and in vivo toxicity assays” (Pest Manag Sci, 2010).

Experiment [1] is described as follows: Selectivity ratio of EC50 for ecdysone receptor in Bombyx mori Bm5 cells to EC50 for ecdysone receptor in Spodoptera littoralis Sl2 cells. In kind it is cell-based.
The nature of experiment [2]: Ratio of LD50 for Spodoptera littoralis to LD50 for Bombyx mori. In kind it is functional.
Experiment [3] deals with T1, Ecdysone receptor (Bombyx mori, UniProt P49881).
T1 sequence (P49881 whole entry): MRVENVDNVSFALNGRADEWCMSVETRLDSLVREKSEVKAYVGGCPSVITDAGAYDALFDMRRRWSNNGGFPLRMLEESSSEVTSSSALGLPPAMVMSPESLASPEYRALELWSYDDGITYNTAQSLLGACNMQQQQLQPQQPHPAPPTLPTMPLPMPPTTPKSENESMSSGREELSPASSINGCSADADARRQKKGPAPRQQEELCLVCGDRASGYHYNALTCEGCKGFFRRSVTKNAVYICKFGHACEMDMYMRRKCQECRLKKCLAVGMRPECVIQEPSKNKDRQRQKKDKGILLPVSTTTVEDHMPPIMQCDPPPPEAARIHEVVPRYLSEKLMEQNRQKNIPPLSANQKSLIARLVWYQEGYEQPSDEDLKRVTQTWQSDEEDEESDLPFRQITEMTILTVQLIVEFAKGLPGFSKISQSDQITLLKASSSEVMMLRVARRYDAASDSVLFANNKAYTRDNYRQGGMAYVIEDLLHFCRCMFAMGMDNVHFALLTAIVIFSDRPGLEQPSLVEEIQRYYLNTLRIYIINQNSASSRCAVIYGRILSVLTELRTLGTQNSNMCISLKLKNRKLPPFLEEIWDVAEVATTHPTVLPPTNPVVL
In words: Agonist activity at ecdysone receptor in Bombyx mori Bm5 cells after 24 hr by luciferase reporter gene assay. In kind it is cell-based. The conditions noted are these: read-out: pEC50 (converted).

Experiment [4] addresses T2, Ecdysone receptor (Spodoptera littoralis) (UniProt E3UJZ5).
T2 sequence (whole entry): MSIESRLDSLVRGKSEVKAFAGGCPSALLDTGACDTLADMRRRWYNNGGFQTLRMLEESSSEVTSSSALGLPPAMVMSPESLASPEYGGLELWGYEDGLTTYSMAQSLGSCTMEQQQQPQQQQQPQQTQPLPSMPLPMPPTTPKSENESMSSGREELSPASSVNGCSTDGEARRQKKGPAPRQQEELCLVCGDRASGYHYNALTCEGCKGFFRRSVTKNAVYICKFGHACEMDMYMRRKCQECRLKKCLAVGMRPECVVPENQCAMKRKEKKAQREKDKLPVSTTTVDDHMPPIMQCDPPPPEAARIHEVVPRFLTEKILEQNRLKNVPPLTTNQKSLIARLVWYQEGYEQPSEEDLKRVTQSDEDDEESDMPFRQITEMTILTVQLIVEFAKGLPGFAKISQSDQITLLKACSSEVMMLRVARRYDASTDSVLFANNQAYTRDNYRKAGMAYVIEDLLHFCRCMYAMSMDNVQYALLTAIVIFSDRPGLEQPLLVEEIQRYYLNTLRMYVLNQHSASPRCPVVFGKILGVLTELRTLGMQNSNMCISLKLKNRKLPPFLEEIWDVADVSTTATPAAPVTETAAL
In words: Agonist activity at ecdysone receptor in Spodoptera littoralis Sl2 cells after 24 hr by luciferase reporter gene assay relative to tebufenozide. The experiment is classed as cell-based.

The target in experiment [5] is T3, Ecdysone receptor (Spodoptera littoralis, UniProt E3UJZ5).
T3 sequence (E3UJZ5 whole entry): T2 sequence (whole entry)
Kind of experiment: Agonist activity at ecdysone receptor in Spodoptera littoralis Sl2 cells after 24 hr by luciferase reporter gene assay. In kind it is cell-based. Conditions: read-out: pEC50 (converted). (A reporter such as luciferase makes a cellular process visible.)

Experiment [6] has as its system Spodoptera littoralis. Kind of experiment: Larvicidal activity against Spodoptera littoralis assessed as mortality applied topically after 1 week. The experiment is classed as functional.
Experiment [7] addresses T4, Ecdysone receptor (Bombyx mori) (UniProt P49881).
T4 sequence (whole entry): T1 sequence (P49881 whole entry)
Kind of experiment: Agonist activity at ecdysone receptor in Bombyx mori Bm5 cells after 24 hr by luciferase reporter gene assay relative to tebufenozide. The experiment is classed as cell-based.

For experiment [8], the system named is Bombyx mori. In words: Larvicidal activity against Bombyx mori assessed as mortality applied topically after 1 week. The experiment is classed as functional.

On to `CCc1ccc(C(=O)NN(C(=O)c2cc(C)cc(C)c2)C(C)(C)C)cc1` [TEBUFENOZIDE], for which, in experiment [1], the Ratio EC50 is 0.51. Moreover, the Ratio in experiment [2] stood at 10.5. Also, the EC50 in experiment [3] is 0.00112 µM; in experiment [5], 0.00219 µM. Besides, the Efficacy in experiment [4] and in experiment [7] was 100% each time. In addition, the values for the pLD50 in experiment [6] and in experiment [8] were 6.58 and 7.6, respectively.
With `CCCCCc1ccc(C(=O)NN(C(=O)c2cc(C)cc(C)c2Cl)C(C)(C)C)cc1`, in experiment [1], the Ratio EC50 is 0.5. Moreover, the EC50 is 1.78 µM in experiment [3] and 3.55 µM in experiment [5]. Besides, the Efficacy in experiment [4] worked out at 76%; in experiment [7], 45%.
As for `CC(C)(C)N(NC(=O)c1ccccc1)C(=O)c1ccccc1C(F)(F)F`, in experiment [1], the Ratio EC50 came to 1.1. Further, the EC50 in experiment [3] was 0.871 µM; in experiment [5], 0.794 µM. The Efficacy in experiment [4] was determined as 98%; in experiment [7], 92%.
Turning to `CC(C)(C)N(NC(=O)c1ccccc1)C(=O)c1ccc(Cl)c(Cl)c1Cl`, the Ratio EC50 in experiment [1] was determined as 0.69. Further, the EC50 in experiment [3] is 3.63 µM; in experiment [5] it was 5.25 µM. Further, the Efficacy in experiment [4] is 95%; in experiment [7], 79%. For the same molecule, the pLD50 in experiment [6] and in experiment [8] was under 5.4 in each case.
For `CCOc1ccccc1C(=O)N(NC(=O)c1ccc(CC)cc1)C(C)(C)C`, the Ratio EC50 in experiment [1] stood at 0.42. The figures for the EC50 in experiment [3] and in experiment [5] were 2.88 µM and 6.92 µM, respectively. Further, the Efficacy in experiment [4] was 89%; in experiment [7] it was 92%.
For `CCc1ccc(C(=O)NC2(C(=O)c3cc(C)cc(C)c3)CCCCC2)cc1`, the Ratio EC50 in experiment [1] is 0.65. For the same molecule, the Ratio in experiment [2] is over 23.4. Also, the EC50 is 0.0776 µM in experiment [3] and 0.12 µM in experiment [5]. Further, the Efficacy amounted to 101% in experiment [4] and 112% in experiment [7]. Moreover, the pLD50 was under 4.44 in experiment [6] and 6.08 in experiment [8].
Consider `CCC(CC)(NC(=O)c1ccc2c(c1C)CCCO2)C(=O)c1cc(C)cc(C)c1`, for which, in experiment [1], the Ratio EC50 amounted to 1.15. For the same molecule, the EC50 is 0.191 µM in experiment [3] and 0.166 µM in experiment [5]. In addition, the Efficacy in experiment [4] was 104%; in experiment [7], 113%.
Regarding `CC(C)c1ccc(C(=O)NN(C(=O)c2ccccc2Cl)C(C)(C)C)cc1`, the Ratio EC50 in experiment [1] is 0.38. Moreover, the results for the EC50 in experiment [3] and in experiment [5] were 0.00661 µM and 0.0174 µM, respectively. Moreover, the Efficacy in experiment [4] was 95%; in experiment [7], 116%.
With `Cc1ccccc1C(=O)N(NC(=O)c1cccc(F)c1)C(C)(C)C`, the Ratio EC50 in experiment [1] was found to be 0.7. Moreover, the EC50 in experiment [3] was 0.324 µM; in experiment [5], 0.457 µM. Further, the Efficacy stood at 120% in experiment [4] and 92% in experiment [7].
For `CCCCc1ccc(C(=O)NN(C(=O)c2cc(C)cc(C)c2Cl)C(C)(C)C)cc1` the same measures were 1.02, 1.15 µM, 1.12 µM, 69% and 45%.
`CC(C)(C)N(NC(=O)c1cccc(Cl)c1)C(=O)c1ccccc1Cl`: the Ratio EC50 in experiment [1] stood at 0.18. The Ratio in experiment [2] is over 2.4. For the same molecule, the EC50 in experiment [3] is 0.309 µM; in experiment [5] it was 1.7 µM. Further, the Efficacy in experiment [4] was determined as 75%; in experiment [7], 119%. Further, the pLD50 in experiment [6] is under 5.44; in experiment [8], 5.82.
Turning to `CCc1ccc(C(=O)NC(CC)(CC)C(=O)c2cc(C)cc(C)c2)cc1`, the Ratio EC50 in experiment [1] was determined as 0.29. In addition, the results for the EC50 in experiment [3] and in experiment [5] were 1.26 µM and 4.27 µM, respectively. Moreover, the Efficacy is 96% in experiment [4] and 95% in experiment [7].
With `CC(C)(C)N(NC(=O)c1ccccc1)C(=O)c1ccccc1` [RH-5849], in experiment [1], the Ratio EC50 came out at 0.34. In experiment [2], the Ratio is 17.8. Moreover, the EC50 was 0.437 µM in experiment [3] and 1.29 µM in experiment [5]. In addition, the Efficacy was 91% in experiment [4] and 87% in experiment [7]. Moreover, the pLD50 in experiment [6] is recorded as 4.75; in experiment [8], 5.55.
As for `CC(C)(C)N(NC(=O)c1ccc(Br)cc1)C(=O)c1ccccc1Cl`, the Ratio EC50 in experiment [1] was determined as 0.34. Moreover, in experiment [2], the Ratio was over 7.59. Moreover, the EC50 in experiment [3] was 0.151 µM; in experiment [5], 0.437 µM. Also, the Efficacy stood at 77% in experiment [4] and 106% in experiment [7]. Also, the pLD50 is reported as under 5.39 in experiment [6] and 6.27 in experiment [8].
Take `COc1ccc(C(=O)NN(C(=O)c2ccccc2Cl)C(C)(C)C)cc1`: in experiment [1], the Ratio EC50 came to 0.4. Also, the Ratio in experiment [2] is over 12.3. Moreover, the EC50 in experiment [3] was 0.135 µM; in experiment [5], 0.339 µM. Moreover, the results for the Efficacy in experiment [4] and in experiment [7] were 85% and 126%, respectively. The pLD50 is under 5.44 in experiment [6] and 6.53 in experiment [8].
As for `CCc1ccc(C(=O)NN(C(=O)c2cc(C)cc(C)c2Cl)C(C)(C)C)cc1`, the Ratio EC50 in experiment [1] is 0.34. For the same molecule, the Ratio in experiment [2] was over 3.39. For the same molecule, the EC50 in experiment [3] is 0.115 µM; in experiment [5] it was 0.339 µM. In addition, the figures for the Efficacy in experiment [4] and in experiment [7] were 83% and 85%, respectively. Also, the pLD50 in experiment [6] is under 4.41; in experiment [8], 4.94.
As for `CCCCc1ccc(C(=O)NN(C(=O)c2ccccc2OCC)C(C)(C)C)cc1`, the Ratio EC50 in experiment [1] is 2.09. Moreover, the EC50 in experiment [3] is 16.2 µM; in experiment [5], 7.76 µM. Further, the Efficacy stood at 41% in experiment [4] and 20% in experiment [7].
On the same counts, the results for `Cc1cc(C)c(Cl)c(C(=O)N(NC(=O)c2ccc(Cl)cc2)C(C)(C)C)c1` are 0.42, 0.447 µM, 1.07 µM, 101% and 93%.
As for `COc1ccc(C(=O)NN(C(=O)c2cc(C)cc(C)c2Cl)C(C)(C)C)cc1`, the Ratio EC50 in experiment [1] amounted to 0.6. In addition, the EC50 was 1.23 µM in experiment [3] and 2.04 µM in experiment [5]. The results for the Efficacy in experiment [4] and in experiment [7] were 105% and 100%, respectively.
For the molecule `CCCCCc1ccc(C(=O)NN(C(=O)c2ccccc2Cl)C(C)(C)C)cc1`, the Ratio EC50 in experiment [1] is 1.32. Also, the EC50 in experiment [3] was 0.427 µM; in experiment [5] it was 0.324 µM. Besides, the figures for the Efficacy in experiment [4] and in experiment [7] were 86% and 97%, respectively.
On the same counts, the results for `Cc1ccc(C(=O)NN(C(=O)c2cc(C)cc(C)c2Cl)C(C)(C)C)cc1` are 0.22, 0.302 µM, 1.35 µM, 85% and 108%.
On the same counts, the results for `CCCc1ccc(C(=O)NN(C(=O)c2ccccc2Cl)C(C)(C)C)cc1` are 0.42, 0.0309 µM, 0.0741 µM, 75% and 107%.
For `Cc1cc(C)c(Cl)c(C(=O)N(NC(=O)c2ccccc2)C(C)(C)C)c1` the same measures were 0.68, 1.17 µM, 1.74 µM, 87% and 92%.
As to `CCOc1ccccc1C(=O)N(NC(=O)c1ccc(OC)cc1)C(C)(C)C`, the Ratio EC50 in experiment [1] came out at 0.87. Moreover, the EC50 was 19.1 µM in experiment [3] and 21.9 µM in experiment [5]. In addition, the Efficacy in experiment [4] came to 45%; in experiment [7], 59%.
On the same counts, the results for `CCOc1ccccc1C(=O)N(NC(=O)c1ccc(Cl)cc1)C(C)(C)C` are 0.81, 7.76 µM, 9.55 µM, 80% and 74%.
